Experimental data as given in patent US11059825B2, “CXCR7 antagonists” (CHEMOCENTRYX, INC., priority 2012, dated 2021).
pIC50: −log10 of the molar value.

Experiments:
CXCR7 receptor [1] = target: T1, CXCR7 receptor (Homo sapiens (Human), UniProt P25106); assay: Serum Binding Analysis: displacement of 125I SDF-1 from CXCR7 in 100% human serum; details: 100% human serum (human AB serum with 10 mM HEPES), MCF-7 and/or MDA-MB-435S CXCR7 transfected cells, 125I SDF-1, 3 hrs at 4° C.; read-out: Avg Ser IC50
Description: (§1) The ability of the compounds to displace the labeled chemokine from the CXCR7 receptor sites at multiple concentrations was then determined with the screening process.
(§2) ^125I-labeled SDF-1 was purchased from Perkin-Elmer Life Sciences, Inc. (Boston, Mass.). The MCF-7 (adenocarcinoma; mammary gland) cell line was obtained from the American Type Culture Collection (ATCC, Manassas, Va.) or and was cultured in DMEM (Mediatech, Herndon, Va.) supplemented with 10% fetal bovine serum (FBS) (HyClone Logan, Utah) and bovine insulin (0.01 mg/mL) (Sigma, St. Louis, Mo.) at 37° C. in a humidified incubator at a 5% CO2/air mixture. CXCR7 transfected MDA-MB-435S were produced as described below. MDA-MB-435 S human breast cancer line, was purchased from ATCC, and cultured in DMEM/10% FBS medium. The complete coding sequence of the gene encoding CXCR7 (a.k.a. CCXCKR2, hRDC1), was isolated from MCF-7 cells using MACs mRNA isolation kit (Miltenyi Biotec, Auburn, Calif.). DNA contamination was removed by DNase digestion via RNeasy columns (Qiagen, Inc., Valencia, Calif.) and cDNA was generated using GeneAmp RNA PCR Core Kit (Applied Biosystems, Foster City, Calif.). PCR of cDNA samples was performed using Taq PCR Master Mix kit (Qiagen, Inc.) and hRDC1 primers harboring 5′ and 3′ Not I sites (hRDC1F 5′ […]-3′, hRDC1R 5′-[…]-3′) Not I digested PCR product was ligated into Not I digested pcDNA3.1 (+)(Invitrogen, Carlsbad, Calif.) and screened for orientation and sequence confirmed. Plasmid DNA was then isolated from overnight bacterial cultures by Maxiprep (Qiagen, Inc.). Plasmid DNA (10 μg) was added to MDA-MB-435s cells and cells were electroporated (0.22 kV, 960 uF) via Gene Pulser (Biorad laboratories, Hercules, Calif.). 48 hr post-electroporation, cells were transferred to selection medium (600 ug/ml G418).
In order to more properly assess the binding efficacy of the compounds, radioligand binding assays were carried out in the presence of 100% human serum to more accurately reflect the in vivo environment. […] Target compounds were tested to determine their ability to bind with CXCR7 sites on MCF-7 and/or MDA-MB-435S CXCR7 transfected cells. Efficiency-maximized radioligand binding using filtration protocols as described in Dairaghi D J, et al., HHV8-encoded vMIP-I selectively engages chemokine receptor CCR5. Agonist and antagonist profiles of viral chemokines., J. Biol. Chem. 1999 Jul. 30; 274(31): 21569-74 and Gosling J, et al., Cutting edge: identification of a novel chemokine receptor that binds dendritic cell- and T cell-active chemokines including ELC, SLC, and TECK., J. Immunol. 2000 Mar. 15; 164(6):2851-6 was used.
In these assays, MCF-7 and/or MDA-MB-435S cells were interrogated with the target compounds and the ability of these compounds to displace 125 I radiolabeled SDF-1 was assessed using the protocol described in Dairaghi and Gosling. The target compounds were added to the plate to the indicated concentration followed by addition of cells and radiolabeled chemokine (125I SDF-1), both in the following medium (human AB serum with 10 mM HEPES added to stabilize at pH 7.4). All assays were then incubated for 3 hrs at 4° C. with gentle agitation. Following incubation in all binding assays, reactions were aspirated onto PEI-treated GF/B glass filters (Packard) using a cell harvester (Packard) and washed twice (25 mM HEPES, 500 mM NaCl, 1 mM CaCl2, 5 mM MgCl2, adjusted to pH 7.1). Scintillant (MicroScint 10, Packard) was added to the wells, and the filters were counted in a Packard Topcount scintillation counter. Data were analyzed and plotted using GraphPad Prism (GraphPad Software).

[2] = test system: C6 cells implanted into the brains of Sprague-Dawley rats; assay: Rat C6 model of glioblastoma; assay type: in vivo; details: tumors irradiated after 7 days with 5-20 Gy, then treated with compound
Description: Many tumor models in animals are known in the art, and may be employed to evaluate a compound of instance. For instance, in a rat C6 model of glioblastoma, 1×10^6 C6 cells were implanted by stereotactic injection into the into the brains of Sprague-Dawley rats. After 7 days tumors were irradiated with between 5-20 Gy of radiation. Following irradiation rats were treated (eg via subcutaneous, intraperitoneal, oral, parenteral or other route) with compound or vehicle control and tumors are allowed to progress. Animals were followed until death or loss of >20% weight, or removed for tumor induced neurodeficits eg seizures and immobility in according with appropriate regulations and standards.

CXCR7 receptor [3] = target: T1, CXCR7 receptor; assay: Buffer Binding Analysis: displacement of 125I-labeled SDF-1 from CXCR7 on cells; details: buffer binding medium, MCF-7 and/or MDA-MB-435S CXCR7 transfected cells, 125I SDF-1, 3 hr at 4° C.; read-out: Avg Bind IC50
Description: as §1, §2
Target compounds can be tested to determine their ability to bind with CXCR7 sites on MCF-7 and/or MDA-MB-435S CXCR7 transfected cells. Efficiency-maximized radioligand binding using filtration protocols as described in Dairaghi D J, et al., HHV8-encoded vMIP-1 selectively engages chemokine receptor CCR5. Agonist and antagonist profiles of viral chemokines., J. Biol. Chem. 1999 Jul. […]
In these assays, MCF-7 and/or MDA-MB-435S cells are interrogated with the target compounds and the ability of these compounds to displace ^125I radiolabeled SDF-1 assessed using the protocol described in Dairaghi and Gosling. […] Scintillant (MicroScint 10, Packard) is added to the wells, and the filters counted in a Packard Topcount scintillation counter. Data are analyzed and plotted using GraphPad Prism (GraphPad Software).

T1 sequence (P25106 whole entry): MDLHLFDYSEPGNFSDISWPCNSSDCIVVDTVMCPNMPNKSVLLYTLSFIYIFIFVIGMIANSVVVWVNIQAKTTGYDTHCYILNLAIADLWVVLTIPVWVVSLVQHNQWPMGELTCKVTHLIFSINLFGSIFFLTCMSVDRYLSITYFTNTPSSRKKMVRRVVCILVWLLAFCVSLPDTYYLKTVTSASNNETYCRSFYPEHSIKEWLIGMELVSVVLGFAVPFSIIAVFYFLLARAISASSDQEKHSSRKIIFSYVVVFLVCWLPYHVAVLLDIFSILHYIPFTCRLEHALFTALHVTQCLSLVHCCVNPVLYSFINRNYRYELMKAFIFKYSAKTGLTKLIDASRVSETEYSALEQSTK

Row | pIC50 (CXCR7 receptor [1]) | pIC50 (CXCR7 receptor [3]) | Compound | antitumor activity (delay in tumor growth vs vehicle treated control; Kaplan Meier analysis of survival) [2]
1 | ≥ 6.30 | ≥ 6.30 | O=C(N[C@H]1CCN(c2nccn3cccc23)C1)c1csc(N2CCC(O)CC2)n1 [Compound 1.098] | –
2 | ≥ 6.30 | ≥ 6.30 | O=C(N[C@H]1CCN(c2nccn3ccnc23)C1)c1noc(-c2ccccc2)n1 [Compound 1.121] | –
3 | 5.60 to 6.30 | – | O=C(N[C@H]1CCN(c2nccn3cnnc23)C1)c1ncn(-c2ccccc2)n1 [Compound 1.127] | –
4 | ≥ 6.30 | ≥ 6.30 | O=C(N[C@H]1CCN(c2nccn3cccc23)C1)c1ccn(-c2ccc(F)cc2)n1 [Compound 1.128] | –

Second part, the molecule before the results:

Row | Compound | pIC50 (CXCR7 receptor [1]) | pIC50 (CXCR7 receptor [3]) | antitumor activity (delay in tumor growth vs vehicle treated control; Kaplan Meier analysis of survival) [2]
5 | O=C(N[C@@H]1CCN(c2nccn3ccnc23)C1)c1ncn(-c2ccccc2)n1 [Compound 1.027] | 5.60 to 6.30 | – | –
6 | O=C(N[C@H]1CCN(c2nccn3ccnc23)C1)c1csc(N2CCC3(CC3)C(O)C2)n1 (stereo partly shown) [Compound 1.047] | 4.82 to 5.60 | – | –
7 | CN(C)c1cnc(C(=O)N[C@H]2CCN(c3nccn4cccc34)C2)nc1 [Compound 1.049] | ≥ 6.30 | – | –
8 | O=C(N[C@H]1CCN(c2nccn3ccnc23)C1)c1ncn(-c2ccc(F)cc2)n1 [Compound 1.090] | – | – | profound antitumor activity
9 | Cc1ccn2ccnc(N3CC[C@H](NC(=O)c4csc(N5CCC(O)CC5)n4)C3)c12 [Compound 1.097] | ≥ 6.30 | ≥ 6.30 | –
